Measured values: patent publication US8697662B2, “Methods for treating Kaposi sarcoma” (PTC Therapeutics, Inc., priority 2009, dated 2014)
pEC50: −log10 of the molar value.

Key:
[1] = 7-day oral toxicity study in dogs; assay type: in vivo
[2] = tested on: hypoxia-inducible endogenous VEGF expression; experiment: Hypoxia-inducible endogenous VEGF expression ELISA in HeLa cells, dose-response EC50 (Table 3); assay type: cell-based; details: Homo sapiens, hypoxic conditions (1% O2), VEGF ELISA of conditioned media
Experimental: The ability of the Compounds to modulate hypoxia-inducible endogenous VEGF expression may be analyzed as follows. VEGF protein levels may be monitored by an ELISA assay (R&D Systems). Briefly, HeLa cells may be cultured for 24-48 hours under hypoxic conditions (1% O2, 5% CO2, balanced with nitrogen) in the presence or absence of a Compound. The conditioned media may then be assayed by ELISA, and the concentration of VEGF calculated from the standard ELISA curve of each assay.
A dose-response analysis may be performed using the ELISA assay and conditions described above. The conditions for the dose-response ELISA are analogous to those described above. A series of, e.g., seven different concentrations may be analyzed. In parallel, a dose-response cytotoxicity assay may be performed using Cell Titer Glo (Promega) under the same conditions as the ELISA to ensure that the inhibition of VEGF expression was not due to the cytotoxicity.

HT1080 xenografts [3] = experiment: BrdU labeling of tumor cells from HT1080 xenografts in vivo; design: species or system athymic nude mice; details: HT1080 xenografts, 1, 2, or 3 days of treatment
Experimental: (§1) Experimental Design. HT1080 cells (5×10^6 cells/mouse) were implanted subcutaneously in male athymic nude mice.
The mice were sacrificed 3 hours later, and the tumors collected. A single cell suspension was prepared from the tumor cells. The cells were permeabilized and an antibody to BrdU was used to stain cells that had entered S phase during the labeling period. The proportion of cells actively synthesizing DNA was determined by cell sorting.

physiological VEGF-A = experiment: Phase 1 study in healthy volunteers: plasma and serum physiological VEGF-A concentrations; assay type: in vivo, human; details: any dose tested
Experimental: The study was performed under the oversight of the French health authorities. The study was not performed under an IND.
Plasma VEGF Concentrations: Plasma and serum VEGF concentrations and concentration changes from baseline were presented descriptively.

[4] = 7-day oral toxicity study in rats; details: Sprague Dawley, rat, in vivo; for NOAEL at 7 days: oral gavage
Experimental: (§2) A battery of genotoxicity studies was also performed. […] The L23 vehicle was used.
Maximal exposures occurred at a dose of 120 mg/kg/day.

in vivo = details: both, beagle, dog, po
Experimental: The L23 vehicle was used. […] All studies in the toxicology program were conducted according to GLP regulations.

[5] = ECG and blood pressure assessments in 7-day and 28-day dog toxicity studies; assay type: in vivo, beagle dogs
HT1080 cells = experiment: Kinetics of S-phase transit by BrdU incorporation in HT1080 cells; assay type: cell-based, human; details: HT1080, 18-hour treatment
Experimental: Experimental Design. HT 1080 cells are exposed to BrdU (bromodeoxyuridine, a synthetic nucleoside that is an analogue of thymidine and is incorporated into DNA during the S phase of cell division) (FITC BrdU Flow Kit, BD Pharmingen catalog #552598). Cells are grown and treated as described in Section 9.3.1.3 above with the exception that one hour prior to harvesting by trypsinization, BrdU (final concentration 1 μM) is added to each culture for 1 hour. Cells actively replicating DNA during this brief time incorporate the BrdU into the DNA, which can then be quantitated. BrdU content is quantitated with using the FITC BrdU Flow Kit as instructed by the manufacturer. The process includes fixation (paraformaldehyde) and DNA staining with 7-AAD (7-amino-actinomycin D) followed by incubation with a fluoro-tagged anti-BrdU antibody that specifically recognizes BrdU incorporated into DNA. Dual channel FACS analysis permits assessment of both the DNA content of individual cells and the rate of transit across the S-phase, which is assessed based upon BrdU incorporation over the one hour treatment period.

[6] = tested on: soluble VEGF121 and VEGF165 isoforms; experiment: ELISA of soluble VEGF production in multiple human tumor cell lines (EC50); assay type: cell-based; details: 18 human tumor cell lines
Experimental: Study Design. […] In these experiments, cultures were established under normoxic conditions (21% oxygen). […] Cells requiring induction of VEGF production were incubated under hypoxic conditions (1% oxygen). At the completion of treatment, the conditioned media were collected and assayed by ELISA (as described in Section 9.1.1.1) for soluble VEGF121 and VEGF165 isoforms; results were calculated as percentage inhibition relative to vehicle treated controls. EC50 values were calculated from the dose concentration response curves.

HT1080 xenografts [7] = experiment: Intratumoral microvessel density (CD31 immunostain) and tumor VEGF in HT1080 xenografts; assay type: in vivo, athymic nude mice; details: 5 mg/kg BID oral (given as racemic mixture), 10 days
Experimental: as §1
At the end of treatment, the mice were sacrificed. Excised tumors were assayed by ELISA for VEGF content as described in Section 9.1.1.1, and were sectioned and immunostained with an anti murine CD31 antibody that is specific for endothelial cells.

[8] = Single-dose oral toxicity study in rats; details: Sprague Dawley, rat, in vivo, 1 day
Experimental: as §2
Because maximal exposure occurred at 100 mg/kg, this dose is considered the NOAEL for 1 day of dosing.

[9] = tested on: Chinese hamster ovary (CHO) cells; experiment: Chromosome aberration study in CHO cells; assay type: cell-based; details: with and without exogenous metabolic activation
Experimental: Genotoxicity was assessed in a battery of in vitro and in vivo studies that included a bacterial reverse mutation study, a chromosome aberration study in Chinese hamster ovary (CHO) cells, and a micronucleus study in rats by the oral route. The in vitro studies were performed in the presence and absence of an exogenous metabolic activation system.

SMILES: COc1ccc(C2c3[nH]c4ccc(Cl)cc4c3CCN2C(=O)Oc2ccc(Cl)cc2)cc1 (racemic) [Compound #10]
- NOAEL at 7 days ([1]; both sexes, beagle, dog, in vivo, dogs, oral capsules): 60 mg/kg/day
- dose at which exposures were maximal ([1]; dogs, 10, 30, or 60 mg/kg/dose BID, 7 days): 30 mg/kg/dose BID
- treatment-related clinical finding ([1]; dogs, males and females, 10, 30, or 60 mg/kg/dose BID, 7 days): increased incidence and frequency of soft stools
- NOAEL for 7-days ([1]; dogs, oral capsules): 30 mg/kg/dose BID
- pEC50 [2]: > 8.10
- BrdU staining of tumor cells (fraction in S phase) (in words) (HT1080 xenografts [3]): increased BrdU staining
- plasma or serum physiological VEGF-A concentrations (physiological VEGF-A): No significant alterations
- dose at which maximal exposures occurred ([4]; 7 days): 120 mg/kg/day
- NOAEL at 7 days ([4]; female, read-out: NOAEL for 7-days, female rats): 120 mg/kg/day
- NOAEL at 7 days ([4]; male, read-out: NOAEL for 7-days, male rats): 40 mg/kg/day
- NOAEL at 28 days (in vivo): 30 mg/kg/day
- QTc values ([5]; males, 60 mg/kg/day, 28-day study): comparable to controls
- ECG or blood pressure results ([5]; through 120 mg/kg/day for 7-days and through 60 mg/kg/day for 28-days, oral): did not have any toxicological effects
- BrdU incorporation by individual cells during the one-hour period vs DMSO control (in words) (HT1080 cells): incorporated less BrdU
- percentage of cells residing in S-phase (in words) (HT1080 cells; increasing doses): net increase
- EC50 values for cell lines showing VEGF inhibition (in words) [6]: low nanomolar range
- tumor vessel count (CD31 immunostain) (HT1080 xenografts [7]): unchanged
- dose at which maximal exposure occurred [8]: 100 mg/kg
- genotoxic effects [9]: no evidence of genotoxic effects
